For orientation: Ki means the equilibrium dissociation constant of an inhibitor or competing ligand from its target.

Where “and” joins values, the source holds several entries; their conditions need not be identical. Identical values can stand only once.

The values that follow come from patent publication US4396615A, “Method of treating androgen-related disorders” (Duke University, priority 1981, dated 1983).

The test system of assay [1] is 5α-reductase. Briefly: 5α-reductase assay of Moore and Wilson, with or without preincubation of enzyme with inhibitor and NADPH. It counts as biochemical. Conditions: for potency as inhibitor of the enzyme relative to progesterone: assay of Moore and Wilson; for Picomol Testosterone reduced/mg protein in 45 min + SEM: assay 45 min: inhibitor 5 × 10^-8, testosterone 5 × 10^-8, NADPH 5 × 10^-4 M; for manner of combination with / inactivation of the enzyme: in the presence of the co-factor NADPH; for Picomol Testosterone Reduced/mg protein in 45 min: assay 45 min: progesterone 5 × 10^-8, NADPH 5 × 10^-4, testosterone 5 × 10^-8. The source says:
Employing the assay of R. J. Moore and J. D. Wilson [Methods in Enzymology, Vol. XXXVI, Academic Press, N.Y., Ed. W. O'Malley and G. Hardman, p.

Assay [2] concerns 5α-reductase. Conditions: preparations of human benign prostatic hypertrophic tissue; cited from earlier work.
Another assay concerns sebum secretion. Conditions: topical administration of a 0.5% solution in aqueous ethanol; cited from earlier work.
Assay [3] has as its system 5α-reductase in cell-culture preparations of human prostate. The note with it: cited from earlier work.
The test system of assay [4] is 5α-reductase. Conditions: well-known, prior art; cited from earlier work.

With `C=C1C[C@H]2[C@@H]3CC[C@H](C(C)=O)[C@@]3(C)CC[C@@H]2[C@@]2(C)CCC(=O)C=C12` [6-methyleneprogesterone], in the assay with 5α-reductase [1], the “potency as inhibitor of the enzyme relative to progesterone” value is listed as “equipotent with progesterone”.

Turning to `C=C1C[C@@H]2[C@H](CC[C@@]3(C)[C@H]2CC[C@]3(OC(C)=O)C(C)=O)[C@@]2(C)CCC(=O)C=C12` [17α-acetoxy-6-methyleneprogesterone], the “Picomol Testosterone reduced/mg protein in 45 min + SEM” value with 5α-reductase [1] (A: preincubation 15 min with inhibitor 5 × 10^-7 M and NADPH 6 × 10^-5 M) was 0.71 ± 0.018 Picomol Testosterone reduced/m; in the assay on 5α-reductase [1] (B: preincubation 15 min with inhibitor 0 and NADPH 6 × 10^-5 M) it was 3.0 ± 0.26 Picomol Testosterone reduced/m; in the assay on 5α-reductase [1] (C: preincubation 15 min with inhibitor 0 and NADPH 0), 2.83 ± 0.09 Picomol Testosterone reduced/m; in the assay on 5α-reductase [1] (D: preincubation 15 min with inhibitor 5 × 10^-7 M and NADPH 0), 2.63 ± 0.18 Picomol Testosterone reduced/m; in the assay with 5α-reductase [1] (F: no preincubation), 3.14 ± 0.20 Picomol Testosterone reduced/m. The “potency as inhibitor of the enzyme relative to progesterone” value in the assay with 5α-reductase [1] is recorded as “equipotent with progesterone”. Moreover, the Ki at 5α-reductase [1] (first phase, from plot of t1/2 against 1/[Inhibitor] (FIG. 2), read-out: Ki of reversible combination of enzyme and inhibitor) is 1250 nM. Also, the “manner of combination with / inactivation of the enzyme” value in the assay with 5α-reductase [1] was “irreversible manner”. Besides, the “time course of inactivation of the enzyme” value in the assay with 5α-reductase [1] (incubation of enzyme with NADPH and inhibitor (FIG. 1)) was “pseudo first-order kinetics”. In addition, the enzyme activity lost in the assay on 5α-reductase [1] (preincubation of enzyme with compound and NADPH, diluted tenfold, then assayed) was 75%. Moreover, the “rate constant of irreversible combination (kcat)” value at 5α-reductase [1] (second phase, enzyme-inhibitor complex rendered inactive) came out at 0.0048 s⁻¹.

Take `CC(=O)[C@H]1CC[C@H]2[C@@H]3CCC4=CC(=O)CC[C@]4(C)[C@H]3CC[C@]12C` [progesterone]: the “conversion of testosterone to dihydrotestosterone” value in the assay on 5α-reductase [2] is on record as “Inhibition of the conversion of testosterone to dihydrotestosterone”. Besides, in the assay with sebum secretion, the “males with acne showing an important decrease in sebum secretion” value is recorded as 45/53. In addition, the “effect on growth of the tissue” value in assay [3] was “inhibiting growth of the tissue”. For the same compound, the “inhibition of the enzyme in cell-culture preparations of human prostate” value in assay [3] is recorded as “strongly inhibits the enzyme”. The “Picomol Testosterone Reduced/mg protein in 45 min” value with 5α-reductase [1] (1: preincubation 15 min with progesterone 0 and NADPH 6 × 10^-5) is 3.91 Picomol Testosterone Reduced/m and 3.41 Picomol Testosterone Reduced/m; in the assay with 5α-reductase [1] (2: preincubation 15 min with progesterone 5 × 10^-7 and NADPH 6 × 10^-5), 3.91 Picomol Testosterone Reduced/m and 3.79 Picomol Testosterone Reduced/m; with 5α-reductase [1] (4: no preincubation), 3.66 Picomol Testosterone Reduced/m and 3.54 Picomol Testosterone Reduced/m. Moreover, the “manner of combination with / inactivation of the enzyme” value in the assay on 5α-reductase [1] is “competitive and reversible”. Moreover, in the assay with 5α-reductase [1] (preincubation of enzyme with compound and NADPH), the “enzyme inactivation on preincubation” value was “does not result in enzyme inactivation”. Besides, the “type of inhibition of the enzyme” value in the assay with 5α-reductase [4] is “reversible and competitive inhibitor”.
